Experimental data as given in US6159940A, “Method for modulating hemopoiesis” (Immunotech Developments Inc., priority 1999, dated 2000).

System: lymphocyte subpopulations in peripheral blood
Assay: Clinical study: hemogram and immune phenotyping in patients with chronic lymphoid leukosis
Format: in vivo
From the text: The study was continued in groups of patients with immune cytopenias, multiple myeloma, chronic lymphoid leukosis, lymphocytic lymphomas, lymphosarcomas (55 patients). Special attention was paid to the group of patients with P-cellular lymphoid leukosis. The peculiarity of the leukemic B-lymphocyte clone and its relatively vast representation in the peripheral blood of patients with a pronounced secondary immune deficiency makes B-cellular chronic Lymphoid leukosis a unique model for clinical studies of the effect of an immunomodulator.
Immune phenotyping is the most reliable method to determine the changes of ratios of immunocompetent cells in the peripheral blood and lymphocyte-containing organs. The method allows detection of subpopulations by the presence of cellular differentiating antigen structures on lymphocyte surface. For more trustworthy results, some patients were examined using a flow-type cytoflourimeter and monoclonal antibodies. Taking into account the contingent of the patients, the main surface structures to be examined were the following: CD45++CD14-, CD45+CD14-, CD45+CD14+, CD3+CD19-, CD3-CD19+, CD4+CD8-, CD4-CD8+, CD3+HLA- DR+, CD3+CD16,56+, CD34+, CDS+.
The dynamics of CD4+CD8- and CD4-CD8+ (T-helpers and T-suppressers) and the dynamics of other necessary CD-markers were determined in the course of treatment with H-Ile-Glu-Trp-OH. A special attention was paid to CD45++CD14- and CD45+CD14 as they characterize the proportion between normal and leukemic lymphocytes in chronic lymphoid leukosis and illustrate the influence of the immunoactive peptide on the proportion. These peculiarities connected with the characteristics of the disease allow investigation of the molecular mechanism of its genesis. In the case of an immune cytopenia most important are the quantitative ratios of CD45++CD14- and CD45+CD14- to CD4-CD8+, their reliable values can be obtained with the help of a cytofluorimeter.
One ml daily, intranasally, once or twice in divided doses, for 5 days. The course was repeated after a 3-week interval. To those patients who received a cytostatic mono- or polychemotherapy, H-Ile-Glu-Trp-OH was administered from the first day of the break in the cytostatic treatment.

[1] = Patient 0., * % of cells in mixed population of CD45++CD14- and CD45+CD14-
[2] = Patient S., * % of cells in the CD45+CD14- subpopulation

H-Ile-Glu-Trp-OH
% of Cells after H-Ile-Glu-Trp-OH Treatment, CD45++CD14- lymphocytes (Patient 0.): 28% | % of Cells after H-Ile-Glu-Trp-OH Treatment, CD45+CD14+ monocytes (Patient 0.): 3.6% | % of Cells after H-Ile-Glu-Trp-OH Treatment, CD45+CD14- granulocytes (Patient 0.): 63.8% | Absolute Count after treatment, CD45++CD14- lymphocytes (Patient 0.): 5.8 bln/l | number of cells with CD45++CD14- markers after treatment (Patient 0.): grew three times | Lymphocytes absolute after treatment course (Patient 0. (before: 11.2)): 15.4 blnd | leukocytes after treatment course (Patient 0. (before: 17.3)): 20.8 blnd | Lymphocytes after treatment course (Patient 0. (before: 65)): 74% | % of Cells after H-Ile-Glu-Trp-OH Treatment, CD4+CD8- T-helpers [1]: 8.2% | % of Cells after H-Ile-Glu-Trp-OH Treatment, CD4-CD8+ T-suppressers [1]: 8.1% | CD4+/CD8+ ratio after H-Ile-Glu-Trp-OH Treatment (Patient 0., * mixed population of CD45++CD14- and CD45+CD14-): 1.0 | % of Cells after H-Ile-Glu-Trp-OH Treatment, CD45++CD14- lymphocytes (Patient B.): 9.5% | % of Cells after H-Ile-Glu-Trp-OH Treatment, CD45+CD14+ monocytes (Patient B.): 2.1% | % of Cells after H-Ile-Glu-Trp-OH Treatment, CD45+CD14- granulocytes (Patient B.): 86.4% | Absolute Count after treatment, CD45++CD14- lymphocytes (Patient B.): 2.52 bln/l | Lymphocytes absolute after treatment (Patient B. (before: 18.7)): 21.8 bln/1 | leukocytes after treatment (Patient B. (before: 23,0)): 26.6 bin/1 | Lymphocytes after treatment (Patient B. (before: 85)): 82% | % of Cells after H-Ile-Glu-Trp-OH Treatment, CD3+CD19- T-lymphocytes (Patient B., marked *): 10.6% | % of Cells after H-Ile-Glu-Trp-OH Treatment, CD3+HLA-DR+ activated T-lymphoc. (Patient B., marked *): 1.31% | % of Cells after H-Ile-Glu-Trp-OH Treatment, CD3-CD19+ B-lymphocytes (Patient B., marked *): 85.3% | % of Cells after H-Ile-Glu-Trp-OH Treatment, CD4+CD8- T-helpers (Patient B., marked *): 6.4% | % of Cells after H-Ile-Glu-Trp-OH Treatment, CD4-CD8+ T-suppressers (Patient B., marked *): 3.8% | CD4+/CD8+ ratio after H-Ile-Glu-Trp-OH Treatment (Patient B., marked *): 1.7 | % of Cells after H-Ile-Glu-Trp-OH Treatment, CD3+CD19- T-lymphocytes (Patient M.): 35.6% | % of Cells after H-Ile-Glu-Trp-OH Treatment, CD3-CD19+ B-lymphocytes (Patient M.): 61.2% | % of Cells after H-Ile-Glu-Trp-OH Treatment, CD4+CD8- T-helpers (Patient M.): 11.6% | % of Cells after H-Ile-Glu-Trp-OH Treatment, CD4-CD8+ T-suppressers (Patient M.): 30.6% | % of Cells after H-Ile-Glu-Trp-OH Treatment, CD45++CD14- lymphocytes (Patient M.): 43.2% | % of Cells after H-Ile-Glu-Trp-OH Treatment, CD45+CD14+ monocytes (Patient M.): 4.5% | % of Cells after H-Ile-Glu-Trp-OH Treatment, CD45+CD14- granulocytes (Patient M.): 47.7% | Absolute Count after treatment, CD45++CD14- lymphocytes (Patient M.): 3.715 bln/l | CD4+/CD8+ ratio after H-Ile-Glu-Trp-OH Treatment (Patient M.): 0.4 | Lymphocytes absolute after treatment course (Patient M. (before: 3.24)): 3.62 bln/1 | leukocytes after treatment course (Patient M. (before: 7.9)): 8.6 blnA | Lymphocytes after treatment course (Patient M. (before: 41)): 42% | % of Cells after H-Ile-Glu-Trp-OH Treatment, CD3+CD19- T-lymphocytes (Patient S.): 52.0% | % of Cells after H-Ile-Glu-Trp-OH Treatment, CD3+HLA-DR+ activated T-lymphoc. (Patient S.): 16.0% | % of Cells after H-Ile-Glu-Trp-OH Treatment, CD3-CD19+ B-lymphocytes (Patient S.): 40.0% | % of Cells after H-Ile-Glu-Trp-OH Treatment, CD4+CD8- T-helpers (Patient S.): 27.1% | % of Cells after H-Ile-Glu-Trp-OH Treatment, CD4-CD8+ T-suppressers (Patient S.): 36.5% | % of Cells after H-Ile-Glu-Trp-OH Treatment, CD45++CD14- lymphocytes (Patient S.): 13.5% | % of Cells after H-Ile-Glu-Trp-OH Treatment, CD45+CD14+ monocytes (Patient S.): 0.8% | % of Cells after H-Ile-Glu-Trp-OH Treatment, CD45+CD14- granulocytes (Patient S.): 78.0% | Absolute Count after treatment, CD45++CD14- lymphocytes (Patient S.): 9.112 bln/l | CD4+/CD8+ ratio after H-Ile-Glu-Trp-OH Treatment (Patient S.): 0.7 | Lymphocytes absolute after treatment course (Patient S. (before: 48.04)): 58.06 bln/1 | leukocytes after treatment course (Patient S. (before: 57.2)): 67.5 bin/1 | Lymphocytes after treatment course (Patient S. (before: 84)): 86% | count of lymphocytes belonging to the population of conventionally normal lymphocytes (Patient S., after the treatment): doubled | % of Cells after H-Ile-Glu-Trp-OH Treatment, CD3+CD19- T-lymphocytes [2]: 2.6% | % of Cells after H-Ile-Glu-Trp-OH Treatment, CD3+HLA-DR+ activated T-lymphoc. [2]: 0.5% | % of Cells after H-Ile-Glu-Trp-OH Treatment, CD3-CD19+ B-lymphocytes [2]: 96.9% | % of Cells after H-Ile-Glu-Trp-OH Treatment, CD4+CD8- T-helpers [2]: 1.6% | % of Cells after H-Ile-Glu-Trp-OH Treatment, CD4-CD8+ T-suppressers [2]: 1.9% | CD4+/CD8+ ratio after H-Ile-Glu-Trp-OH Treatment (Patient S., * in the CD45+CD14- subpopulation): 0.5
